According to US10378046B2, “Method of targeting mismatched DNA using d8 square planar metal complexes” (The University of Hong Kong, priority 2015, dated 2019):

Assays:
Format in all cases: binding
CC mismatched DNA [1] = test: Emission enhancement of complexes upon titration with CC mismatched DNA; details: complex 5 μM, DNA 10 μM; for increase in emission intensity in the presence of CC mismatched DNA: aqueous buffer 50 mM NaCl, 2 mM Tris, pH 7.5; for ratio of emission enhancement by CC mismatched DNA to that by matched DNA (ΔIcc/ΔImat): aqueous buffer pH 7.5
Method: (§1) FIGS. 1A and 1B are graphs showing the emission spectra of complex 5 (5 μM) in an aqueous buffer solution (50 mM NaCl, 2 mM Tris, pH 7.5) after binding to different concentrations of CC mismatched DNA (left) and well-matched DNA (right).
(§2) FIG. 4 is a graph showing the emission enhancement of different complexes (5 μM) towards CC mismatched DNA and matched DNA (10 μM). FIG. 5 is a graph showing the difference in emission enhancement between CC mismatched DNA and matched DNA by different complexes.

matched DNA [2] = test: Emission enhancement of complexes upon titration with well-matched DNA; details: complex 5 μM, DNA 10 μM; aqueous buffer 50 mM NaCl, 2 mM Tris, pH 7.5
Method: as §1, §2
Upon addition of CC mismatch DNA, a growth of the emission band was observed, and a 27-fold increase in emission intensity was found when the concentration of CC mismatched DNA was twice as much as that of the concentration of complex 5 (FIGS. 1A and 1B). It is noteworthy that the emission enhancement of complex 5 towards CC mismatched DNA was around 7-fold more than that toward matched DNA (FIG. 2).

CC mismatched DNA [3] = test: Isothermal titration calorimetry with CC mismatched DNA; details: 0.1 mM complex titrated by 0.75 mM DNA; 50 mM NaCl, 2 mM Tris, pH 7.5
Excerpt: ITC measures the heat absorbed or generated during a bi-molecular binding event. During ITC experiment of titrating known concentration of titrant (DNA molecules) to known quantity of titrate (Pt(II) complexes), Pt(II) complexes would bind onto the DNA molecules, generating incremental heat changes (in the unit of microcalories (μcal)). Through accurate measurement of the heat changes in each step of the titration and fitting the data by using a non-liner least square method, the best-fitted graph would yield the binding constant (K) of the bi-molecular interaction.
To determine the binding constant of Pt(II) complexes with CC mismatched DNA, 0.1 mM of Pt(II) complex in an aqueous buffer solution (50 mM NaCl, 2 mM Tris, pH 7.5) was titrated by 0.75 mM of DNA. Heat released from each step of titration had been recorded.

matched DNA [4] = test: Isothermal titration calorimetry with matched DNA; details: 0.1 mM complex titrated by 0.75 mM DNA; 50 mM NaCl, 2 mM Tris, pH 7.5

Compound | increase in emission intensity in the presence of CC mismatched DNA (CC mismatched DNA [1]) | increase in emission intensity in the presence of matched DNA (matched DNA [2]) | ratio of emission enhancement by CC mismatched DNA to that by matched DNA (ΔIcc/ΔImat) (CC mismatched DNA [1]) | further results
CCCCN1C=CN(Cc2ccccc2)[CH]1[Pt]12[c]3ccccc3-c3cc(-c4ccccc4)cc([n+]31)-c1cccc[n+]12 (centres unmarked) [Complex 16] | no emission enhancement | no emission enhancement |  | 
OCCN1C=CN(Cc2ccccc2)[CH]1[Pt]12[c]3ccccc3-c3cccc([n+]31)-c1cccc[n+]12 (centres unmarked) [Complex 9] |  | strong emission enhancement | smaller ratios of emission enhancement by CC mismatched DNA to the enhancement by matched DNA than complex 5 | 
CCCCN1C=CN(Cc2ccc3ccccc3c2)[CH]1[Pt]12[c]3ccccc3-c3cccc([n+]31)-c1cccc[n+]12 (centres unmarked) [Complex 11] | no emission enhancement | no emission enhancement |  | 
C1=CN(Cc2ccccc2)[CH]([Pt]23[c]4ccccc4-c4cccc([n+]42)-c2cccc[n+]23)N1Cc1ccccc1 (centres unmarked) [Complex 8] | small emission enhancements | small emission enhancements | smaller ratios of emission enhancement by CC mismatched DNA to the enhancement by matched DNA than complex 5 | 
C1=CN(CN2C=CN(Cc3ccccc3)[CH]2[Pt]23[c]4ccccc4-c4cccc([n+]42)-c2cccc[n+]23)[CH]([Pt]23[c]4ccccc4-c4cccc([n+]42)-c2cccc[n+]23)N1Cc1ccccc1 (centres unmarked) [Complex 21] |  |  | largest ΔIcc/ΔImat value | 
CN1C=CN(C)[CH]1[Pt]12[c]3ccccc3-c3cccc([n+]31)-c1cccc[n+]12 (centres unmarked) [Complex 1] |  |  |  | difference in heat change between titration with CC mismatched DNA and matched DNA (ITC) (CC mismatched DNA [3]): no distinguishable difference in heat change
CCCCN1C=CN(Cc2ccccc2)[CH]1[Pt]12[c]3ccccc3-c3cccc([n+]31)-c1cccc[n+]12 (centres unmarked) [Complex 5] | 27 fold |  |  | binding constant (K) with CC mismatched DNA by ITC (CC mismatched DNA [3]): 1.18×10^4; heat change in the binding of matched DNA (ITC) (matched DNA [4]): no significant heat change
